Assay results taken from US10696693B2, “Fused imidazole derivatives as TGF-beta inhibitors” (Rigel Pharmaceuticals, Inc., priority 2014, dated 2020).
Like-named read-outs stand apart in the source and are kept apart here.

Legend:
GDF8 = assay: AlphaScreen SureFire p-SMAD3 (Ser423/425) assay, GDF8-stimulated cells; assay type: cell-based; conditions: Mus musculus
From the text: (§1) The p-SMAD-3 (Ser423/425) SureFire® assay has been designed to measure the phosphorylation of endogenous cellular p-SMAD-3 (Ser423/425) in cell lysates and is a system for the screening of both modulators of receptor activation (e.g. agonists and antagonists) as well as agents acting intracellularly, such as small molecule inhibitors of upstream events. The assay will measure p-SMAD-3 (Ser423/425) activation by either cloned or endogenous receptors, and can be applied to primary cells.
(§2) 96-well Assay Protocol for 293FT and RMS13 adherent cells can be carried out manually or in high throughput with liquid handling robots.
(§3) The cells (80 μL of cells for 96 well plates) were plated in collagen coated tissue culture plates in RPMI or FreeStyle medium (Invitrogen) and incubated overnight. For manual analysis, 6 plates for GDF8, 6 plates for TGFβ, and optionally 6 plates for Alk5ca(ALK5 constitutively active) were used.
(§4) The compound dilution plates were prepared as follows: 12 μL of DMSO was transferred into first column of 96-well plate, and 16 μL of DMSO was transferred into columns 2-12 of the 96-well plate. 12 μL of compound solution was transferred into first column of the DMSO-containing 96-well plate. Three-fold dilution was performed up to column 10 of the DMSO-containing 96-well plate.
(§5) The plate containing cells were treated with compounds for about 10 minutes, and then ligand was added. GDF8 or TGFb was added to plates to stimulate. 293FL cells were stimulatedfor 90 minutes at 37° C.; and RMS13 cells were stimulated for 60 minutes at 37° C. The medium was then removed from the cells, and 1× Lysis Buffer (about 25 μL) was added and the plate was gently agitated on plate shaker for 5-10 minutes.
(§6) The lysate (5 μL) was then placed into 384-well shallow plates avoiding the generation of bubbles. To this, the Reaction Buffer+Activation Buffer+AlphaScreen® Acceptor beadsmixture (5 μL) was added. The plate was sealed with adhesive cover and shielded from light (e.g., with metal foil), and agitated gently on plate shaker for 2 hours at room temperature.
(§7) Dilution buffer+AlphaScreen® Donor beads (2 μL) was then added, and the plate was intubated on the plate shaker for an additional 1½ hours. After completion, the plate was read on Synergy-4 or Enspire plate reader, using AlphaScreen® pSMAD3® settings.
(§8) Representative results for inhibition of GDF8 (data=GDF pSMAD (MPC11) (μM)) and TGF-β (data=TGF-β pSMAD (MPC-11) (μM)) signaling are shown in Table 1(A=<0.05 μM, B=0.05−<0.1 μM, C=0.1−<1.0 μM, D=>1.0 μM): […]

TGF-β = assay: AlphaScreen SureFire p-SMAD3 (Ser423/425) assay, TGF-β-stimulated cells; assay type: cell-based; conditions: Mus musculus
From the text: as §1, §2, §3, §4, §5, §6, §7, §8

[1] = MPC-11, p-SMAD3 (Ser423/425) AlphaScreen in cell lysate, MPC11, GDF8 stimulation, read-out: GDF8: inhibition of GDF8 signaling, GDF pSMAD (MPC11)
[2] = p-SMAD3 (Ser423/425) AlphaScreen in cell lysate, MPC-11, TGF-β stimulation, read-out: TGF-β: inhibition of TGF-β signaling, TGF-β pSMAD (MPC-11)
[3] = MPC-11, read-out: GDF8: inhibition of GDF8 signaling, GDF pSMAD (MPC11), p-SMAD3 (Ser423/425) AlphaScreen in cell lysate, GDF8 stimulation
[4] = MPC-11, read-out: TGF-β: inhibition of TGF-β signaling, TGF-β pSMAD (MPC-11), p-SMAD3 (Ser423/425) AlphaScreen in cell lysate, TGF-β stimulation

Row | IC50 (GDF8; [1]) [nM] | IC50 (TGF-β; [2]) [nM] | SMILES | IC50 (GDF8; [3]) [nM] | IC50 (TGF-β; [4]) [nM]
1 | 100 to 1000 | 100 to 1000 | Fc1ccc(-c2nc3occn3c2-c2ccc3nccnc3c2)cc1F [Compound 136, 6-(3,4-difluorophenyl)-5-(quinoxalin-6-yl)imidazo[2,1-b]oxaole] | – | –
2 | 100 to 1000 | > 1000 | Cc1c(F)ccc(-c2nc3n(c2-c2ccc4nccn4c2)CCC3)c1C [Compound 74, 6-(2-(4-fluoro-2,3-dimethylphenyl)-6,7-dihydro-5H-pyrrolo[1,2-a]imidazol-3-yl)imidazo[1,2-a]pyridine] | – | –
3 | – | – | Fc1cc(Cl)c(-c2nc3n(c2-c2ccc4nccnc4c2)CCC3)cc1F [Compound 291, 6-(2-(2-chloro-4,5-difluorophenyl)-6,7-dihydro-5H-pyrrolo[1,2-a]imidazol-3-yl)quinoxaline] | 50 to 100 | 100 to 1000
4 | > 1000 | > 1000 | Cc1cc(-c2nc3n(c2-c2ccc4ncsc4c2)CCC3)cc(Cl)c1F [Compound 273, 6-(2-(3-chloro-4-fluoro-5-methylpheny)-6,7-dihydro-5H-pyrrolo[1,2-a]imidazol-3-yl)benzo[d]thiazole] | – | –
5 | > 1000 | > 1000 | O=C(OCc1ccccc1)N1CCC2Cn3c(nc(-c4ccc(F)cc4)c3-c3ccc4ncnn4c3)C2C1 (centres unmarked) [Compound 88, benzyl 3-([1,2,4]triazolo[1,5-a]pyridin-6-yl)-2-(4-fluorophenyl)-5,5a,6,7,9,9a-hexahydro-8H-imidazo[1′,2′:1,2]pyrrolo[3,4-c]pyridine-8-carboxylate] | – | –
6 | – | – | Fc1cc(F)cc(-c2nc3n(c2-c2ccc4nccnc4c2)CCC3)c1 [Compound 233, 6-(2-(3,5-difluorophenyl)-6,7-dihydro-5H-pyrrolo[1,2-a]imidazol-3-yl)quinoxaline] | > 1000 | > 1000
7 | 100 to 1000 | > 1000 | Fc1ccc(F)c(-c2nc3n(c2-c2ccc4[nH]ncc4c2)CCC3)c1F [Compound 221, 5-(2-(2,3,6-trifluorophenyl)-6,7-dihydro-5H-pyrrolo[1,2-a]imidazol-3-yl)-1H-indazole] | – | –
8 | > 1000 | > 1000 | CC(C)c1nnc2ccc(-c3c(-c4cc(F)cc(F)c4F)nc4n3CCC4)cn12 [Compound 22, 3-isopropyl-6-(2-(2,3,5-trifluorophenyl)-6,7-dihydro-5H-pyrrolo[1,2-a]imidazol-3-yl)-[1,2,4]triazolo[4,3-a]pyridine] | – | –
9 | 100 to 1000 | > 1000 | Cc1cc(-c2nc3n(c2-c2ccc4[nH]ncc4c2)CCC3)c(C)cc1F [Compound 308, 5-(2-(4-fluoro-2,5-dimethylphenyl)-6,7-dihydro-5H-pyrrolo[1,2-a]imidaol-3-yl)-1H-indazole] | – | –
10 | 100 to 1000 | 100 to 1000 | Fc1ccc(-c2nc3occn3c2-c2ccc3nccnc3c2)c(F)c1 [Compound 157, 6-(2,4-difluorophenyl)-5-(quinoxalin-6-yl)imidazo[2,1-b]oxazole] | – | –
11 | < 50 | 100 to 1000 | Fc1ccc(-c2nc3n(c2-c2ccc4ncnn4c2)CCC3)cc1Cl [Compound 36, 6-(2-(3-chloro-4-fluorophenyl)-6,7-dihydro-5H-pyrrolo[1,2-a]imidazol-3-yl)-[1,2,4]triazolo[1,5-a]pyridine] | – | –
12 | 100 to 1000 | 100 to 1000 | COCCOc1cnc2ccc(-c3c(-c4cc(F)c(F)cc4F)nc4n3CCN4)cc2n1 [Compound 115, 2-(2-methoxyethoxy)-7-(6-(2,4,5-trifluorophenyl)-2,3-dihydro-1H-imidazo[1,2-a]imidazol-5-yl)quinoxaline] | – | –
13 | > 1000 | 100 to 1000 | Fc1cc(F)c(F)c(-c2nc3n(c2-c2ccc4ncccc4c2)CCCN3)c1 [Compound 165, 6-(2-(2,3,5-trifluorophenyl)-5,6,7,8-tetrahydroimidazo[1,2-a]pyrimidin-3-yl)quinoline] | – | –
14 | < 50 | 50 to 100 | Fc1ccc(-c2nc3occn3c2-c2ccc3ncsc3c2)cc1F [Compound 135, 5-(benzo[d]thiazol-6-yl)-6-(3,4-difluorophenyl)imidazo[2,1-b]oxazole] | – | –
15 | > 1000 | > 1000 | Cc1cc(-c2nc3n(c2-c2ccc4nccnc4c2)CCC3)cc(C)c1Cl [Compound 245, 6-(2-(4-chloro-3,5-dimethylphenyl)-6,7-dihydro-5H-pyrrolo[1,2-a]imidazol-3-yl)quinoxaline] | – | –
16 | 100 to 1000 | 100 to 1000 | Fc1ccc(-c2nc3n(c2-c2ccc4ncccc4c2)CCC3)c(F)c1 [Compound 211, 6-(2-(2,4-difluorophenyl)-6,7-dihydro-5H-pyrrolo[1,2-a]imidazol-3-yl)quinoline] | – | –
17 | 100 to 1000 | > 1000 | Cc1cc(-c2nc3n(c2-c2ccc4[nH]ncc4c2)CCC3)cc(C)c1F [Compound 276, 5-(2-(4-fluoro-3,5-dimethylphenyl)-6,7-dihydro-5H-pyrrolo[1,2-a]imidazol-3-yl)-1H-indazole] | – | –
18 | < 50 | < 50 | c1ccc(-c2nc3n(c2-c2ccc4ncsc4c2)CCC3)nc1 [Compound 367, 6-(2-(pyridin-2-yl)-6,7-dihydro-5H-pyrrolo[1,2-a]imidazol-3-yl)benzo[d]thiazole] | – | –
19 | 50 to 100 | 100 to 1000 | Cc1cc(-c2nc3n(c2-c2ccc4nccn4c2)CCC3)ccc1F [Compound 3, 6-(2-(4-fluoro-3-methylphenyl)-6,7-dihydro-5H-pyrrolo[1,2-a]imidazol-3-yl)imidazo[1,2-a]pyridine] | – | –
20 | 50 to 100 | < 50 | O=C(O)C1Cn2c(nc(-c3cc(F)cc(F)c3F)c2-c2ccc3nccnc3c2)N1 (centres unmarked) [Compound 125, 5-(quinoxalin-6-yl)-6-(2,3,5-trifluorophenyl)-2,3-dihydro-1H-imidazo[1,2-a]imidazole-2-carboxylic acid] | – | –
21 | – | – | Fc1ccc(-c2nc3n(c2-c2ccc4nccnc4c2)CC2(CCCC2)C3)cc1 [Compound 326, 2′-(4-fluorophenyl)-3′-(quinoxalin-6-yl)-5′H,7′H-spiro[cyclopentane-1,6′-pyrrolo[1,2-a]imidazole]] | > 1000 | > 1000
22 | 100 to 1000 | > 1000 | Cc1ccccc1-c1nc2n(c1-c1ccc3ncsc3c1)CCC2 [Compound 305, 6-(2-(o-tolyl)-6,7-dihydro-5H-pyrrolo[1,2-a]imidazol-3-yl)benzo[d]thiazole] | – | –
23 | > 1000 | > 1000 | Cc1ccc(-c2ccc3ncnn3c2)cc1-c1nc2n(c1-c1ccc3ncnn3c1)CCC2 [Compound 91, 6-(2-(5-([1,2,4]triazolo[1,5-a]pyridin-6-yl)-2-methylphenyl)-6,7-dihydro-5H-pyrrolo[1,2-a]imidazol-3-yl)-[1,2,4]triazolo[1,5-a]pyridine] | – | –
24 | > 1000 | > 1000 | Cc1ccc(-c2nc3n(c2-c2ccc4[nH]ncc4c2)CCC3)c(F)c1F [Compound 248, 5-(2-(2,3-difluoro-4-methylphenyl)-6,7-dihydro-5H-pyrrolo[1,2-a]imidazol-3-yl)-1H-indazole] | – | –
25 | > 1000 | > 1000 | Cc1cc(-c2nc3n(c2-c2ccc4ncnn4c2)CCC3)cc(C)c1Cl [Compound 24, 6-(2-(4-chloro-3,5-dimethylphenyl)-6,7-dihydro-5H-pyrrolo[1,2-a]imidazol-3-yl)-[1,2,4]triazolo[1,5-a]pyridine] | – | –
26 | – | – | Cc1cc(F)ccc1-c1nc2n(c1-c1ccc3nccnc3c1)CCC2 [Compound 294, 6-(2-(4-fluoro-2-methylphenyl)-6,7-dihydro-5H-pyrrolo[1,2-a]imidazol-3-yl)quinoxaline] | > 1000 | > 1000
27 | 100 to 1000 | 100 to 1000 | Fc1ccccc1-c1nc2n(c1-c1ccc3nccn3c1)CCC2 [Compound 8] | – | –
28 | 100 to 1000 | 100 to 1000 | Fc1ccc(-c2nc3n(c2-c2ccc4nccnc4c2)CCC3)c(F)c1 [Compound 204, 6-(2-(2,4-difluorophenyl)-6,7-dihydro-5H-pyrrolo[1,2-a]imidazol-3-yl)quinoxaline] | – | –
